Values of other authors in patent US20110158922A1, “Skin Care Compositions and Method of Use Thereof” (priority 2008, published 2011).
No end group written: not given here. *: point of attachment. Palmitoyl = CCCCCCCCCCCCCCCC(=O)*

Assays:
collagen glycation = settings: in vitro
[1] = test system: skin cell energy production; settings: topical application
synthesis of GAGs = settings: in-vitro study
[2] = test system: T-T dimmers in DNA, DNA repair, cell viability following UV exposure; settings: in vitro

## COc1ccc([C@@H]2CC(=O)c3c(O)cc(O[C@@H]4O[C@H](CO[C@@H]5O[C@@H](C)[C@H](O)[C@@H](O)[C@H]5O)[C@@H](O)[C@H](O)[C@H]4O)cc3O2)cc1O [Hesperidin flavonoids, hesperidin]
Collagen glycation
  collagen glycation: inhibit collagen glycation in vitro

## CN(CC(=O)O)C(=N)N [creatine]
[1]
  skin cell energy production: substantial improvement in skin cell energy production

## Palmitoyl-Lysysl-Threonyl-Threonyl-Lysyl-Serine (Palmitoyl-KTTKS) [Palmitoyl pentapeptide-4, peptide derived from a collagen precursor]
Synthesis of GAGs
  synthesis of GAGs: increase synthesis of GAGs

## ethylbisiminomethylguaiacol manganese chloride
[2]
  DNA repair: stimulates DNA repair
  cell viability following UV exposure: increasing cell viability following UV exposure
[2]; UV exposure
  formation of T-T dimmers in DNA: reduces the formation of T-T dimmers in DNA
